From patent US10189859B2, “Derivatives of 6-(2,3-dichlorophenyl)-1,2,4-triazin-5-amine” (Nektar Therapeutics, priority 2013, dated 2019) come the findings set out here.

pIC50: −log10 of the molar value. Several values for one entry are separate records, joined by “and”; a condition that tells them apart may be missing. Equal values may be shown once. Where a name gives a salt, the structure may show the parent alone. Read-outs that look alike come from different tables or passages of the source.

For the assay, the target named is Nav1.7 sodium channels (human SCN9A gene) (Homo sapiens (Human), UniProt Q15858). Description: Automated patch clamp (IonWorks Barracuda) of Nav1.7 stably expressed in CHO cells. In kind it is cell-based. How it is done:
The potencies of the compounds provided herein to block specific Na+ channels was measured using automated patch clamp electrophysiologically of Nav1.7 sodium channels (human SCN9A gene) stably expressed in CHO cells using the IonWorks™ Barracuda system. Currents were measured from the whole cell patch configuration. From a holding potential of −90 mV, membranes were subjected to a 200 ms pre-pulse to −120 mV, then pulsed to 0 mV to measure blockade of the tonic (resting) state. Inactivated state block was elicited by repolarization to −100 mV (20 ms pulse duration), followed by depolarization to 0 mV (20 ms pulse duration). Peak inward Na+ currents were measured in the presence of vehicle or various concentrations of the test compound to determine the percent block of current. Concentration-response relationships were used to calculate IC50 values for the illustrative compounds.

Where [1] appears, read: inactivated state block, CHO cells, read-out: Inactivated state IC50.
Setting [2] is: tonic (resting) state block, CHO cells, read-out: Tonic state IC50.
Where [3] appears, read: read-out: Inactivated state IC50.

Nav1.7 sodium channels (human SCN9A gene), sequence (Q15858 whole entry): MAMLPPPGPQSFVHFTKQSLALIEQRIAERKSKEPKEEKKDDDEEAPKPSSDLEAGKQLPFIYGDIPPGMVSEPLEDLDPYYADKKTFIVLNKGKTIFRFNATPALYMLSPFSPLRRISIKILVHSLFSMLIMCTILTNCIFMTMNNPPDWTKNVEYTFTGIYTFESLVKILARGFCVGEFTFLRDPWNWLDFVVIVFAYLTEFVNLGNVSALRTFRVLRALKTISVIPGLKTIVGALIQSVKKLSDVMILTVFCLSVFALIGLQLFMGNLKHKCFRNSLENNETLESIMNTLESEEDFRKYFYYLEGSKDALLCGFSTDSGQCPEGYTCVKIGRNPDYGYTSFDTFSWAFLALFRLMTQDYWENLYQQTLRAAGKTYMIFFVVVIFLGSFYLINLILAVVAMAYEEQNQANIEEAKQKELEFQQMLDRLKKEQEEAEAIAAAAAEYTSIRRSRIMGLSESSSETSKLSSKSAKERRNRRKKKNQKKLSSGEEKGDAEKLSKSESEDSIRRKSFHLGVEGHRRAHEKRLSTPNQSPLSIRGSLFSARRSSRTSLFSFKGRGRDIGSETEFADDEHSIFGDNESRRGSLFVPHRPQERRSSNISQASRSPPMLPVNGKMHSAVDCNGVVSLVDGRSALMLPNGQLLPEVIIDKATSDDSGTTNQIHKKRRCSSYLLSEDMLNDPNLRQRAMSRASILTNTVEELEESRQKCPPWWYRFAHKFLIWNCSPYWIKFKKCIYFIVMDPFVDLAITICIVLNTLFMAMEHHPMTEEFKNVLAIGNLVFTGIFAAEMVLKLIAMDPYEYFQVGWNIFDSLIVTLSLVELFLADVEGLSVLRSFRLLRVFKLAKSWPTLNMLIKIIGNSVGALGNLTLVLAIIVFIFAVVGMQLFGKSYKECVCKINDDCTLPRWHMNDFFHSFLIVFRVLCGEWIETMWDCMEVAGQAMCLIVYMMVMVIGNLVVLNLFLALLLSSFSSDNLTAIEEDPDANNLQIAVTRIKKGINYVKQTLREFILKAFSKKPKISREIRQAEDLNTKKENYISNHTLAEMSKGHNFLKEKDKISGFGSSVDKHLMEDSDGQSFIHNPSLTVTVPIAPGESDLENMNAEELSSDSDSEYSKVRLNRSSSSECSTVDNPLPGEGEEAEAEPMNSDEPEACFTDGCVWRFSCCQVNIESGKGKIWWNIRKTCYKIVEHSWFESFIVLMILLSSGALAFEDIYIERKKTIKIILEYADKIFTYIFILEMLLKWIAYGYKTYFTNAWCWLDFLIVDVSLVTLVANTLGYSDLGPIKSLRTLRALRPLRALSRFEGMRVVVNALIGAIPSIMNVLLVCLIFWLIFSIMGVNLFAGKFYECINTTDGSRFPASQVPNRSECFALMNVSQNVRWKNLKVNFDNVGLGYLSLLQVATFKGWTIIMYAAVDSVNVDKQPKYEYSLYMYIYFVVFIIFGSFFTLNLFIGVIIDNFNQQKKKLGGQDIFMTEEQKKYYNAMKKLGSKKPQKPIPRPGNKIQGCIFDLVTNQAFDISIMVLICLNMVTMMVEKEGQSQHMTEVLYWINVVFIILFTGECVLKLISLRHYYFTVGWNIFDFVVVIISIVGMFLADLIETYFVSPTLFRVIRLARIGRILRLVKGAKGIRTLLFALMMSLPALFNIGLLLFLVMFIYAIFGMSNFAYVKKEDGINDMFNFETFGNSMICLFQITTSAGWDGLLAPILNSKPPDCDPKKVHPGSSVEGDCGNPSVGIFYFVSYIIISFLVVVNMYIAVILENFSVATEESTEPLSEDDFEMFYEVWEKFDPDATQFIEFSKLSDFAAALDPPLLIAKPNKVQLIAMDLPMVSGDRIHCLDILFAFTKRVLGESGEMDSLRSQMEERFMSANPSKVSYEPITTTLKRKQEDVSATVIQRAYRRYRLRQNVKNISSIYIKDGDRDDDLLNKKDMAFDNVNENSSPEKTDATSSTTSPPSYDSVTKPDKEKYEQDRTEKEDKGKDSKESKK

Consider `COC[C@@H](O)CN1CCN(c2nnc(-c3cccc(Cl)c3Cl)c(N)n2)C[C@H]1CO` [Compound 134, (S)-1-((S)-4-(5-amino-6-(2,3-dichlorophenyl)-1,2,4-triazin-3-yl)-2-(hydroxymethyl)piperazin-1-yl)-3-methoxypropan-2-ol], for which the pIC50 under setting [1] is < 3.52 and 3.65; the negative logarithm of the IC50 (pIC50) under setting [2] is less than 3.70.
Turning to `COCCOCC(=O)NCC(O)CNc1nnc(-c2cccc(Cl)c2Cl)c(N)n1` (stereo not drawn) [Compound 196, N-(3-((5-amino-6-(2,3-dichlorophenyl)-1,2,4-triazin-3-yl)amino)-2-hydroxypropyl)-2-(2-methoxyethoxy)acetamide], the pIC50 runs as follows: under setting [1], less than 3.52; under setting [2], less than 3.70.
Regarding `COCCOCCOCC(C)CNc1nnc(-c2cccc(Cl)c2Cl)c(N)n1` (stereo not drawn) [Compound 177, 6-(2,3-dichlorophenyl)-N3-(3-(2-(2-methoxyethoxy)ethoxy)-2-methylpropyl)-1,2,4-triazine-3,5-diamine], the pIC50 by setting is: under setting [1], greater than 4.30; under setting [2], less than 3.70.
With `COC(=O)CNCCOCCNc1nnc(-c2cccc(Cl)c2Cl)c(N)n1` [Compound 199, methyl 2-((2-(2-((5-amino-6-(2,3-dichlorophenyl)-1,2,4-triazin-3-yl)amino)ethoxy)ethyl)amino)acetate], the pIC50 was less than 3.52 under setting [3] and less than 3.70 (read-out: Tonic state IC50).
`COCCNCCOCCNc1nnc(-c2cccc(Cl)c2Cl)c(N)n1` [Compound 173, 6-(2,3-dichlorophenyl)-N3-(2-(2-((2-methoxyethyl)amino)ethoxy)ethyl)-1,2,4-triazine-3,5-diamine]: the pIC50 was 3.67 under setting [1] and less than 3.70 under setting [2].
On the same counts, the results for `CC(=O)NCCOCCNc1nnc(-c2cccc(Cl)c2Cl)c(N)n1` [Compound 175, N-(2-(2-((5-amino-6-(2,3-dichlorophenyl)-1,2,4-triazin-3-yl)amino)ethoxy)ethyl)acetamide] are less than 3.52 and less than 3.70.
On the same counts, the results for `Nc1nc(N2CCN(CCOC(F)(F)F)CC2)nnc1-c1cccc(Cl)c1Cl` [Compound 88, 6-(2,3-dichlorophenyl)-3-(4-(2-(trifluoromethoxy)ethyl)piperazin-1-yl)-1,2,4-triazin-5-amine] are greater than 4.30 and 3.95.
The like results for `CC(C)(C)OC(=O)COCCN1CCN(c2nnc(-c3cccc(Cl)c3Cl)c(N)n2)CC1` [Compound 203, tert-butyl 2-(2-(4-(5-amino-6-(2,3-dichlorophenyl)-1,2,4-triazin-3-yl)piperazin-1-yl)ethoxy)acetate] were, in that order, greater than 4.30 and 4.06.
Turning to `COCCOCCOCCN1C(C)CN(c2nnc(-c3cccc(Cl)c3Cl)c(N)n2)CC1C` (stereo not drawn) [Compound 111, 3-N-(4-N-mPEG3-3,5-dimethylpiperazinyl) lamotrigine], the pIC50 by setting is: under setting [1], greater than 4.30; under setting [2], less than 3.70.
The like results for `Nc1nc(N2CCN(C[C@H](O)COCC3CCC3)CC2)nnc1-c1cccc(Cl)c1Cl` [Compound 80, (2S)-1-{4-[5-Amino-6-(2,3-dichlorophenyl)-1,2,4-triazin-3-yl]piperazin-1-yl}-3-(cyclobutylmethoxy)propan-2-ol] were, in that order, greater than 4.30 and 4.15.
`CS(=O)(=O)CCOCCNc1nnc(-c2cccc(Cl)c2Cl)c(N)n1` [Compound 176, 6-(2,3-dichlorophenyl)-N3-(2-(2-(methylsulfonyl)ethoxy)ethyl)-1,2,4-triazine-3,5-diamine]: the pIC50 was 3.57 and 3.74 under setting [1]; less than 3.70 under setting [2].
In the case of `Nc1nc(N2CCN3CCOC[C@@H]3C2)nnc1-c1cccc(Cl)c1Cl` [Compound 131, (S)-6-(2,3-dichlorophenyl)-3-(hexahydropyrazino[2,1-c][1,4]oxazin-8(1H)-yl)-1,2,4-triazin-5-amine di HCl salt], the pIC50 is 3.73 under setting [3] and less than 3.70 (read-out: Tonic state IC50).
For the molecule `Nc1nc(N2CCN[C@@H](CO)C2)nnc1-c1cccc(Cl)c1Cl` [Compound 122, (R)-5-amino-3-N-[3-(hydroxymethyl)piperazin-1-yl] lamotrigine diHCl], the negative logarithm of the IC50 (pIC50) is less than 3.82 under setting [1] and less than 3.82 under setting [2].
With `COCCOCCN(C)CCN(C)c1nnc(-c2cccc(Cl)c2Cl)c(N)n1` [Compound 193, 6-(2,3-dichlorophenyl)-N3-(2-((2-(2-methoxyethoxy)ethyl)(methyl)amino)ethyl)-N3-methyl-1,2,4-triazine-3,5-diamine], the pIC50 was greater than 4.30 under setting [1] and 4.20 under setting [2].
The like results for `COC(=O)COCCOCCNc1nnc(-c2cccc(Cl)c2Cl)c(N)n1` [Compound 197, methyl 2-(2-(2-((5-amino-6-(2,3-dichlorophenyl)-1,2,4-triazin-3-yl)amino)ethoxy)ethoxy)acetate] were, in that order, greater than 4.30 and less than 3.70.
On to `CC(C)(C)OCC(O)CN1CCN(c2nnc(-c3cccc(Cl)c3Cl)c(N)n2)C[C@H]1CO` (stereo partly drawn) [Compound 136, 1-((S)-4-(5-amino-6-(2,3-dichlorophenyl)-1,2,4-triazin-3-yl)-2-(hydroxymethyl)piperazin-1-yl)-3-(tert-butoxy)propan-2-ol], for which the negative logarithm of the IC50 (pIC50) under setting [1] was 4.06 and 4.03; the pIC50 under setting [2] is less than 3.70.
Consider `Nc1nc(NC2CNC2)nnc1-c1cccc(Cl)c1Cl` [Compound 132, 3-N-(azetidin-3-yl) lamatrogine 2HCl salt], for which the pIC50 reads like this: under setting [1], less than 3.52; under setting [2], less than 3.70.
On the same counts, the results for `COCCOCCOCC(=O)N1CCC(Nc2nnc(-c3cccc(Cl)c3Cl)c(N)n2)CC1` [Compound 107, 3-N-(4′-N-mPEG2-CM piperidinyl) lamotrigine] are less than 3.52 and less than 3.70.
As to `CC(C)(C)OCC(O)CN1CCN(c2nnc(-c3cccc(Cl)c3Cl)c(N)n2)[C@H](CO)C1` (stereo partly drawn) [Compound 139, 1-((S)-4-(5-amino-6-(2,3-dichlorophenyl)-1,2,4-triazin-3-yl)-3-(hydroxymethyl)piperazin-1-yl)-3-(tert-butoxy)propan-2-ol], the pIC50 under setting [1] is 3.99 and the pIC50 under setting [2] is less than 3.70.
For the molecule `CN(CCN(C)c1nnc(-c2cccc(Cl)c2Cl)c(N)n1)C(=O)COCC(N)=O` [Compound 192, 2-(2-amino-2-oxoethoxy)-N-(2-((5-amino-6-(2,3-dichlorophenyl)-1,2,4-triazin-3-yl)(methyl)amino)ethyl)-N-methylacetamide], the negative logarithm of the IC50 (pIC50) under setting [1] is less than 3.52 and the pIC50 under setting [2] is less than 3.70.
The like results for `COC[C@@H](O)CNC1(C)CCN(c2nnc(-c3cccc(Cl)c3Cl)c(N)n2)C1` (stereo partly drawn) [Compound 162, (2S)-1-((1-(5-amino-6-(2,3-dichlorophenyl)-1,2,4-triazin-3-yl)-3-methylpyrrolidin-3-yl)amino)-3-methoxypropan-2-ol] were, in that order, 3.71 and less than 3.70.
The like results for `COC[C@@H](O)CN[C@@H]1CCN(c2nnc(-c3cccc(Cl)c3Cl)c(N)n2)C1` [Compound 159, (S)-1-(((R)-1-(5-amino-6-(2,3-dichlorophenyl)-1,2,4-triazin-3-yl)pyrrolidin-3-yl)amino)-3-methoxypropan-2-ol] were, in that order, 3.54 and less than 3.70.
The like results for `Nc1nc(N2CCNCC23CC3)nnc1-c1cccc(Cl)c1Cl` [Compound 141, 6-(2,3-dichlorophenyl)-3-(4,7-diazaspiro[2.5]octan-4-yl)-1,2,4-triazin-5-amine] were, in that order, 3.83 and less than 3.70.
With `COC[C@@H](O)CNC1CN(c2nnc(-c3cccc(Cl)c3Cl)c(N)n2)C1` [Compound 163, (S)-1-((1-(5-amino-6-(2,3-dichlorophenyl)-1,2,4-triazin-3-yl)azetidin-3-yl)amino)-3-methoxypropan-2-ol], the negative-log IC50 (pIC50) is less than 3.52 under setting [1] and less than 3.70 under setting [2].
In the case of `CN(CCO)c1nnc(-c2cccc(Cl)c2Cl)c(N)n1` [Compound 185, 2-((5-amino-6-(2,3-dichlorophenyl)-1,2,4-triazin-3-yl)(methyl)amino)ethanol], the negative logarithm of the IC50 (pIC50) by setting is: under setting [3], 3.76; (read-out: Tonic state IC50) less than 3.70.
For `CN(CCNC[C@H](O)C(F)(F)F)c1nnc(-c2cccc(Cl)c2Cl)c(N)n1` [Compound 147, (S)-3-((2-((5-amino-6-(2,3-dichlorophenyl)-1,2,4-triazin-3-yl)(methyl)amino)ethyl)amino)-1,1,1-trifluoropropan-2-ol], the pIC50 was greater than 4.30 under setting [1]; 3.82 and 3.75 under setting [2].
Consider `COCCOCCOCC(=O)N1CCN(c2nnc(-c3cccc(Cl)c3Cl)c(N)n2)CC1` [Compound 105, 3-N-mPEG2-CM-piperazinyl lamotrigine], for which the pIC50 was less than 3.52 under setting [1] and less than 3.70 under setting [2].
On the same counts, the results for `CN(CCOCCNc1cnc(-c2cccc(Cl)c2Cl)c(N)n1)CC(N)=O` [Compound 191, 2-((2-(2-((6-amino-5-(2,3-dichlorophenyl)pyrazin-2-yl)amino)ethoxy)ethyl)-(methyl)amino)acetamide] are 3.61 and less than 3.70.
On the same counts, the results for `COCCOCCOCCN1CCC(Nc2nnc(-c3cccc(Cl)c3Cl)c(N)n2)CC1` [Compound 108, 3-N-(1-N-mPEG3-piperidin-4-yl) lamotrigine] are 3.73 and less than 3.70.
With `COC[C@@H](O)CN(C)CC1CN(c2nnc(-c3cccc(Cl)c3Cl)c(N)n2)C1` [Compound 160, (S)-1-(((1-(5-amino-6-(2,3-dichlorophenyl)-1,2,4-triazin-3-yl)azetidin-3-yl)methyl)(methyl)amino)-3-methoxypropan-2-ol], the pIC50 reads like this: under setting [1], 3.53; under setting [2], less than 3.70.
